Data taken from patent US8530636B2, “Method for regulating protein function in cells in vivo using synthetic small molecules” (priority 2008, dated 2013).
Entries after “also recorded” stand apart in the source; their conditions may differ.

How the values were obtained:
vvDD = type: cell-based, vaccinia virus
[1] = tested on: HCT116 L-L106P-IL-2 tumors; type: in vivo
Experimental: FIGS. 22A-22D show graphs relating to the conditional stabilization of a secreted immunomodulatory protein leads. […]. Data are represented as the average IL-2 concentration ±SEM (n=3). […]. Tumor volume was determined by caliper measurement and monitored over time. Data are represented as the average tumor volume ±SEM (n=5).
[…]. Tumors in the untreated control animals continued to increase in size over the course of the experiment. […].
(§1) SCID or CD1 nu-/nu-mice (Charles River Co.) received subcutaneous dorsal injections of ˜1×10^7 cells, and tumors were allowed to establish as indicated. Animals were given an intraperitoneal injection of luciferin (225 mg/kg), anesthetized (2% isoflurane), and placed on the warmed stage (37° C.) of an IVIS 100 or IVIS 200 (Xenogen Product from Caliper Life Sciences) for imaging. Light produced was measured as photons/sec for designated regions of interest as described. Tumor volumes were also determined by caliper measurement, and mice were sacrificed when tumors reached 1.44 cm^3 for survival assays. In some experiments, serum samples were collected by retino-orbital bleedings and tumors collected post-mortem and homogenized for ELISA assay of cytokines. All experiments were run with institutional IACUC approval.

[2] = mouse, in vivo
L106P-tsLuc = molecular target: T1, L106P-tsLuc (Homo sapiens, UniProt P62942, F37V); test: In vivo bioluminescence imaging of HCT116 L106P-luciferase xenografts; design: species or system SCID mice
T1 construct: expressed in transfected cells
T1 sequence (P62942 with tags, fused parts or gaps F37V): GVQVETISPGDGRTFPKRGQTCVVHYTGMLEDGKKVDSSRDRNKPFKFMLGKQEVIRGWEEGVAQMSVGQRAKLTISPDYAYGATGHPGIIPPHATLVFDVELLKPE

L-L106P-IL-2 [3] = molecular target: T2, L-L106P-IL-2 (Homo sapiens, UniProt P60568); test: IL-2 secreted by HCT116 L-L106P-IL-2 cells, ELISA of culture media; type: cell-based; conditions: dose-dependent on Shield1 in the media
T2 construct: IL-2 signal peptide (L), human IL-2 (N); expressed in transfected cells; in culture (A11) or as xenograft in CD1 nu-/nu- mice (A13)
T2 sequence (P60568 with tags, fused parts or gaps): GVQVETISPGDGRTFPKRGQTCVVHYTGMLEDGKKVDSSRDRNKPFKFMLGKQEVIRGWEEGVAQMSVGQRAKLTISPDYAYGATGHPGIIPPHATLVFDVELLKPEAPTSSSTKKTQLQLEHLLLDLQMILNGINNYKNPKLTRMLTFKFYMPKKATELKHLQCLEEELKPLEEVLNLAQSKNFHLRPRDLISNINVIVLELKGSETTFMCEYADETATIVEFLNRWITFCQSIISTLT
Experimental: (§2) FIGS. 22A-22D show graphs relating to the conditional stabilization of a secreted immunomodulatory protein leads. […] Data are represented as the average IL-2 concentration ±SEM (n=3). […] Tumor volume was determined by caliper measurement and monitored over time. Data are represented as the average tumor volume ±SEM (n=5).
Interleukin-2 (IL-2) is a cytokine that is instrumental in immune response, inducing the differentiation and proliferation of a variety of lymphocyte populations (Gaffen, S. L. and Liu, K. D. (2004) Cytokine 28:109-23). Recombinant IL-2 is approved for clinical treatment of renal cancers and is used in a variety of other cancer therapies. Polynucleotides encoding the L106P stability-affecting protein were inserted between polynucleotides of the IL-2 gene that encode the signal peptide and the remainder of the IL-2 protein to produce the chimeric gene, L-L106P-IL-2, which was stably introduced into HCT116 cells. […]
Thermostable luciferase or the human IL-2 gene were cloned into pBMN L106P iBlasticidin and used to generate amphotropic retrovirus (Banaszynski, L. A. et al. (2006) Cell. 126:995-1004). […] Cells grown in 96-well plates (2×10^4 cells/well) were treated with Shield1 as indicated and either bioluminescence measured using an IVIS 50 (Xenogen Product from Caliper Life Sciences) following luciferin addition (300 μg/mL), or media collected for ELISA.

FKBP-YFP fusion proteins [4] = molecular target: FKBP-YFP fusion proteins (Homo sapiens, UniProt P62942, F37V); test: Kinetics of FKBP-YFP fluorescence upon addition of Shield1; conditions: L106P-YFP, various concentrations of Shield1
Chain of FKBP-YFP fusion proteins (Homo sapiens, UniProt P62942, F37V) (P62942 with tags, fused parts or gaps F37V): as the sequence (P62942 with tags, fused parts or gaps F37V) above

FKBP-YFP fusion proteins [5] = test: as above
FKBP F36V variant = FKBP F36V variant (Homo sapiens, UniProt P62942, F37V); conditions: Clackson et al. 1998; cited from earlier work
Chain of FKBP F36V variant (P62942 2-108 F37V limits assumed): as the sequence (P62942 with tags, fused parts or gaps F37V) above, with P106L counted along it

[6] = molecular target: T3, FKBP variant V24A-YFP fusion protein (Homo sapiens, UniProt P62942, F37V/V25A); test: Shield1 dose-response of FKBP-YFP fluorescence, flow cytometry; type: cell-based; conditions: NIH3T3 cells stably expressing V24A FKBP-YFP
T3 construct: expressed in transfected cells; host or cells: NIH3T3 (retroviral transduction)
T3 sequence (P62942 2-108 V25A/F37V): as the sequence (P62942 with tags, fused parts or gaps F37V) above, with V24A, P106L counted along it
Experimental: (§3) Experiments were performed in triplicate.

FKBP L106P-YFP fusion = molecular target: T4, FKBP L106P-YFP fusion (Homo sapiens, UniProt P62942, F37V); test: as above; type: cell-based
T4 construct: expressed in transfected cells
T4 sequence (P62942 with tags, fused parts or gaps F37V): as the sequence (P62942 with tags, fused parts or gaps F37V) above
Experimental: as §3

L-L106P-IL-2 [7] = molecular target: T2, L-L106P-IL-2; test: IL-2 in tumor and serum of xenografted mice, ELISA; type: in vivo, CD1 nu-/nu-mice; conditions: 48 hr after start
Experimental: as §2
Analysis of IL-2 levels within the tumors of treated and untreated mice confirmed dose-dependent production of IL-2 at the tumor site in mice treated at 5 or 10 mg/kg Shield1 (FIG. 22C; p=0.032). […] A dose of 5 mg/kg Shield1 was sufficient to produce the same robust anti-tumor response as 10 mg/kg Shield1, while avoiding the increase in IL-2 serum levels associated with the higher ligand dose.
as §1

HCT116 tumors = test: vvDD L-L106P-IL-2 in mice bearing HCT116 tumors
[8] = cited from earlier work

1-[2-(3,4,5-trimethoxy-phenyl)-butyryl]-piperazine-2-carboxylic acid 3-(3,4-dimethoxy-phenyl)-1-[3-(2-morpholin-4-yl-ethoxy)-phenyl]-propyl ester [Shield1]
Replication of the virus (vvDD): did not affect the replication of the virus
Tumor establishment ([1]; cells pretreated with Shield1, then 10 mg/kg every 48 hours): Tumors failed to establish
Tumor burden relative to untreated animals ([1]; day 16, all Shield1-treated groups): significantly reduced tumor burden
Tumor size ([1]; i.p. 5 or 10 mg/kg every 48 hours from five days after implantation): tumor regression
Feeding behavior, body weight, overall activity [2]: did not appear to affect feeding behavior, body weight, or overall activity
Time for bioluminescent signals to return to background (L106P-tsLuc; 10 mg/kg ip): ≤ 48 h
Increase in bioluminescent signal in the presence compared to the absence of Shield1 (L106P-tsLuc; 10 mg/kg ip, FIG. 21B): ~10 fold
Time of maximum expression levels following treatment (L106P-tsLuc; 10 mg/kg ip, L106P-tsLuc, FIG. 21A): 12 h
Bioluminescence under periodic treatment (L106P-tsLuc; 10 mg/kg once every 48 hours): maintain increased bioluminescence levels over the course of several weeks
Bioluminescence with increasing doses (L106P-tsLuc; 3, 6, or 10 mg/kg): increasing bioluminescence levels
Time of peak luminescence following a single injection of ligand (L106P-tsLuc; FIG. 7A, luciferase fused to FKBP F36V/L106P): about 10 hours
Dynamic range of secreted IL-2 (L-L106P-IL-2 [3]): approximately 25 fold
Time until YFP expression is observed (FKBP-YFP fusion proteins [4]): ≤ 15 min
Time of maximum fluorescence after addition of Shield1 (FKBP-YFP fusion proteins [5]; NIH3T3 cells, FKBP-YFP variants): 24 h
Time fluorescence is stably maintained without further addition of Shield1 (FKBP-YFP fusion proteins [5]; after the maximum at 24 hours): ≥ 48 h
Binding tighter to the F36V variant compared to wild-type FKBP (FKBP F36V variant): about 1,000 fold
EC50 [6]: ~5 nM
Stabilization of FKBP L106P-YFP fusion protein (FKBP L106P-YFP fusion; 1 μM Shield1): fully stabilized
EC50 (FKBP L106P-YFP fusion; NIH3T3 cells stably expressing L106P-YFP, read-out: EC50 of Shield1 to stabilize the YFP fusion protein): ~100 nM
IL-2 per gram tumor tissue (L-L106P-IL-2 [7]; 5 mg/kg): more IL-2 than tumors from untreated mice
Serum IL-2 levels (L-L106P-IL-2 [7]; 5 mg/kg): did not produce any increase in serum IL-2 levels
IL-2 per gram tumor tissue (L-L106P-IL-2 [7]; 10 mg/kg): significantly higher levels of IL-2 than tumors from mice treated at 5 mg/kg
Serum IL-2 levels (L-L106P-IL-2 [7]; 10 mg/kg): significantly higher levels of serum IL-2; also recorded: significantly elevated levels
Treg infiltration into tumor (HCT116 tumors; delayed clearance of virus): increase in Treg infiltration
Survival of treated animals (HCT116 tumors; no Shield1 during the first 72 hours after vvDD L-L106P-IL-2): greater percent survival of the treated animals

C20-methallylrapamycin [MaRap]
Pharmacokinetic properties in vivo [8]: poor pharmacokinetic properties in vivo
